Measurements as given in publication PMC11494503, “Next Generation SICLOPPS Screening for the Identification of Inhibitors of the HIF-1α/HIF-1β Protein–Protein Interaction” (ACS Chemical Biology, 2024).

System: HIF-1
Test: HIF-1-dependent luciferase reporter assay in U2OS-HRE-Luc cells in hypoxia
Assay type: cell-based, human
Conditions: 16 h in hypoxia
Method: HIF Luciferase Reporter Assays
Assays were conducted in previously reported U2OS-HRE-Luciferase (U2OS-HRE-Luc) cells.2 Upon reaching 80-90% confluency, U2OS-HRE-Luc were plated (10 000 cells/well) in 96-well plates (Perkin-Elmer) and incubated in a cell incubator for 16 h. The cells were treated with cyclic peptide at […]
manufacturer’s protocol. […] The

## CC(C)C[C@@H]1NC(=O)[C@H](CS)NC(=O)[C@H](Cc2ccccc2)NC(=O)[C@H](CC(C)C)NC(=O)[C@H](CC(C)C)NC(=O)[C@H](CSSC[C@H](N)C(=O)NCC(=O)N[C@@H](CCCNC(=N)N)C(=O)N[C@@H](CCCCN)C(=O)N[C@@H](CCCCN)C(=O)N[C@@H](CCCNC(=N)N)C(=O)N[C@@H](CCCNC(=N)N)C(=O)N[C@@H](CCC(N)=O)C(=O)N[C@@H](CCCNC(=N)N)C(=O)N[C@@H](CCCNC(=N)N)C(=O)N[C@@H](CCCNC(=N)N)C(=O)N2CCC[C@H]2C(=O)N2CCC[C@H]2C(=O)N[C@@H](CCC(N)=O)C(=O)O)NC1=O [Tat-cyclo-CLLFCL]
20 μM
  luciferase signal reduction: 70%
40 μM
  reduction in luminescence: 84%
Multiple doses, read-out: IC50 of reduction in the hypoxia-mediated luciferase signal
  IC50: 13 ± 4 µM
